# In patent publication US12138256B2, “Treatment of cardiopulmonary disorders” (Bayer Aktiengesellschaft, priority 2021, dated 2024):
# How the values were obtained:
# PAH minipig model = test: Deposited lung dose (absorbing filters) in PAH minipig model and prediction of human dose and duration of effect; type: in vivo, Göttingen minipig
# Protocol: The anesthetized thromboxane A2 challenged PAH-minipig model (see experimental part C-2.1) is considered to be the most relevant and sensitive model for the prediction of the human minimal effective and effective doses (MED, ED). To determine effective LDs, experiments in minipigs were repeated with the difference that absorbing filters were attached at the end of the tubes to determine the deposited lung dose. […] Assuming a minimal effective ND of 3 μg/kg (5% reduction in PAP) the minimal effective deposited LD is considered as 0.15 μg/kg (see FIG. 1).
# The resulting lung deposited doses in the minipig of 0.15, 0.5, 1.5 and 5 μg/kg were multiplied by 60 kg to achieve the lung dose in humans. Thus, the FPD reflecting the PAP reduction for a 60 kg human are calculated to be 9, 30, 90 and 300 μg.
# Thus, via a direct up-scaling from minipig, the predictive MED (5% PAP reduction) for a human based on a 60 kg body weight is calculated to be 9 μg LDD, not considering protein binding within the respiratory tract. As a surrogate for unbound concentrations, which are the likely active concentrations in the lung, we considered respective differences in fractions unbound in plasma of minipig and human. This consideration results in a minimum effective lung dose (LD) for a 60 kg participant of 41 μg LDD for the assumed 5% reduction on PAP. Consequently, the predictive minimal human effective dose is in the range from 9 μg LDD to 41 μg LDD based on a 60 kg body weight (see FIG. 2).
# This translation was also conducted for effective doses (effective PAP reduction>five up to 35 percent for longer time periods up to the complete observation period of 4 hrs) based on the relative lung deposited doses in minipigs as listed in Table 2.
# For DPI products, it is assumed that the fine particle dose (FPD) is basically equivalent to the human lung deposited dose.
# With respect to a prediction of the duration of action for human studies comparative example 11 was compared in the PAH minipig model after inhaled application to Ventavis® (=Iloprost, 10 μg/kg nominal dose), which we used as a clinical reference. […] Therefore the duration of action is more than 6 times longer compared to Ventavis in this preclinical animal model.
# In order to generate a human dose estimate, experiments in the PAH minipig model for comparative example 11 were repeated with the difference that absorbing filters were attached at the end of the tubes to determine the deposited lung dose. […] The arithmetic mean of the aerosol fraction deposited on the filters is 5% based on all results of the filter experiments, resulting in relative lung deposited doses of about 0.15 μg/kg (3 μg/kg nominal dose), 0.5 μg/kg (10 μg/kg nominal dose), 1.5 μg/kg (30 μg/kg nominal dose) and 5 μg/kg (100 μg/kg nominal dose). Assuming a minimal effective nominal dose of 3 μg/kg for a 5% reduction in PAP and a mean nebulization efficiency of 5%, the minimal effective deposited lung dose is considered as 0.15 μg/kg based on the PAH minipig model. Therefore, for a human patient of 60 kg body weight a minimal effective lung deposited dose of 9-41 μg, depending on whether or not an effect of different protein binding (see table 2.1.5) is postulated. Considering 100 μg/kg as effective dose in the minipig model, 300-1370 μg lung deposited dose is postulated as effective dose, again depending on the consideration of different interspecies protein binding.
# [1] = tested on: guinea pig trachea pre-contracted with carbachol; test: Bronchorelaxation in vitro: carbachol pre-contracted guinea pig trachea rings, wash-out recovery factor (C-3.1); settings: 1 μmol/l
# Protocol: Male Dunkin Hartley guinea pig were euthanized using carbon dioxide. The primary bronchus was removed and placed in ice-cold Krebs-Henseleit buffer of following composition (in mmol/l): […] For recording of isometric tension, the bronchial rings were mounted between two hooks. One hook was connected to a force transducer the other was moveable and allowed a precise adjustment of resting tension at 1.5 g. During the equilibration period of 60 min the tissue was washed every 20 min with buffer. […] After 30 min, a cumulative dose response curve of the test compound was constructed. Every concentration was incubated till the response was stable. […] The relaxation was expressed as percentage tension. […] The recovery factor was calculated as a ratio of bronchodilation 1 h after compound application and bronchodilation 1 h after removal (wash out) of test compound. […] Relaxation via Cinaciguat (comparative example 1) and Riociguat (comparative example 2) reached a steady state within the 1 h incubation time. […] In contrast, relaxation induced by comparative example 11 was further progressing during the wash out period (recovery factor 1.41).
# Caco-2 cells = test: Caco-2 permeability test (C-5.1); type: in vitro ADME, human; settings: 2 μM
# [2] = minipig 0.15 μg/kg lung deposited (3 μg/kg nominal dose)
# [3] = minipig 0.50 μg/kg lung deposited (10 μg/kg nominal dose)
# [4] = minipig 1.5 μg/kg lung deposited (30 μg/kg nominal dose)
# [5] = minipig 5.0 μg/kg lung deposited (100 μg/kg nominal dose)
smiles,measurement,setting,value
"O=C(O)c1ccc(CCN(CCc2ccccc2OCc2ccc(-c3ccc(C(F)(F)F)cc3)cc2Cl)[C@H]2CCCc3nc(C(=O)O)ccc32)cc1 [comparative example 11, (5S)-5-{[2-(4-carboxyphenyl)ethyl][2-(2-{[3-chloro-4′-(trifluoromethyl)[biphenyl]-4-yl]methoxy}phenyl)ethyl]amino}-5,6,7,8-tetrahydroquinoline-2-carboxylic acid]",minimal effective deposited lung dose,"PAH minipig model; 5% reduction in PAP, mean nebulization efficiency 5%, minipig",0.15 µg/kg
same,minimal effective nominal dose (MED),"PAH minipig model; 5% reduction in PAP, nebulized liquid solution, minipig",3 µg/kg
same,predictive minimal human effective lung deposited dose,"PAH minipig model; 60 kg body weight, 5% PAP reduction, without/with protein binding difference",9 to 41 µg
same,effective lung deposited doses in humans expected from minipig data,PAH minipig model; 60 kg human,9 to 1370 µg
same,supposed duration of action in humans,PAH minipig model; assumption that duration is comparable between PAH minipig model and humans,at least 6 hours
same,lung deposited dose postulated as effective dose in humans,"PAH minipig model; considering 100 μg/kg as effective dose in the minipig model, 60 kg",300 to 1370 µg
same,"Total lung deposited dose in a 60 kg human, interspecies difference in protein binding considered",PAH minipig model; [2],41 µg
same,"Total lung deposited dose in a 60 kg human, interspecies difference in protein binding not considered",PAH minipig model; [2],9 µg
same,"Total lung deposited dose in a 60 kg human, interspecies difference in protein binding considered",PAH minipig model; [3],137 µg
same,"Total lung deposited dose in a 60 kg human, interspecies difference in protein binding not considered",PAH minipig model; [3],30 µg
same,"Total lung deposited dose in a 60 kg human, interspecies difference in protein binding considered",PAH minipig model; [4],410 µg
same,"Total lung deposited dose in a 60 kg human, interspecies difference in protein binding not considered",PAH minipig model; [4],90 µg
same,"Total lung deposited dose in a 60 kg human, interspecies difference in protein binding considered",PAH minipig model; [5],1370 µg
same,"Total lung deposited dose in a 60 kg human, interspecies difference in protein binding not considered",PAH minipig model; [5],300 µg
same,highest effective dose in the minipig model without systemic side effects (BP reduction),"PAH minipig model; nominal dose, inhaled",100 µg/kg
same,Relaxation (%) (timepoint at 70 min) Mean,[1],72.2%
same,Relaxation (%) (timepoint at 130 min) Mean,[1],51.3%
same,efflux ratio,Caco-2 cells,does not show an efflux ratio
